≈ marks a conversion by molar mass, not a printed value. Where two headings read alike, the source gives them in different places.
How the values were obtained:
[1] = tested on: A2780 human ovarian carcinoma; test: activity against A2780 human ovarian carcinoma cells; type: cell-based; details: for IC50: read-out: A2780 (IC50 ug/ml)
From the text: The biological activity of the compounds of this invention has been further confirmed using well known procedures against A2780 human ovarian carcinoma and the results set forth in Table II. The results were obtained using standard well known procedure (Perez, R. P.; O'Dwyer, P. J.; Handel, L. M.; Ozols, R. F.; Hamilton, T. C. Int. J. Cancer 1991, 48, 265, Alley, M.C.; Scudiero, D. A.; Monks, A.; Hursey, M. L; Czerwinski, M. J.; Fine, D. L.; et al. Cancer Res 1988, 48, 589).

[2] = tested on: L1210 mouse leukemia carcinoma cells; test: cytotoxicity / inhibition of cell proliferation in L1210 leukemia cells in culture; type: cell-based; details: drug concentration required to inhibit cell proliferation to 50% of that of untreated control cells; for IC50: Mus musculus, L1210, read-out: L1210 (IC50 ug/ml)
From the text: (§1) The biological activity of the 7-deoxy-7-ether-taxol compounds (Formula I) of the invention has been confirmed using well known procedures.
The biological activity of the compounds of this invention has been further confirmed using well known procedures against L1210 leukemia and the results set forth in Table I. The results were obtained using standard well known procedure (Li, L.H.; Kuentzel, S.L.; Murch, L.L.; Pschigoga, L.M.; and W.C. Krueger, "Comparative biological and biochemical effects of nogalamycin and its analogs on L1210 leukemia," Cancer Res. 39:4816-4822 (1979)). The results are expressed as an IC50 which is the drug concentration required to inhibit cell proliferation to 50% of that of untreated control cells. Lower numbers indicated greater activity.

[3] = tested on: L1210 mouse leukemia carcinoma cells; test: as above; type: cell-based
tubulin = test: in vitro tubulin polymerization assay (after Gaskin et al.); type: biochemical; details: in vitro at 20°C, compared with taxol
From the text: as §1

Compound	A2780 (IC50 ug/ml) [1]	L1210 (IC50 ug/ml) [2]	further results
CC(=O)OC1C(=O)C2(C)C(OCSc3ccccc3)CC3OCC3(OC(C)=O)C2C(OC(=O)c2ccccc2)C2(O)CC(OC(=O)C(O)C(NC(=O)c3ccccc3)c3ccccc3)C(C)=C1C2(C)C (centres unmarked) [Compound 46, 7-(O-phenylthiomethyl) taxol]	0.0016 µg/mL		
CC(=O)OC1C(=O)C2(C)C(OCOCc3ccccc3)CC3OCC3(OC(C)=O)C2C(OC(=O)c2ccccc2)C2(O)CC(OC(=O)C(O)C(NC(=O)OC(C)(C)C)c3ccccc3)C(C)=C1C2(C)C (stereo not drawn) [Compound 10, 7-(O-benzyloxymethyl)-13-(N-Boc-β-phenylisoserinyl)-baccatin III]		0.001 µg/mL	
CC(=O)O[C@@]12CO[C@@H]1C[C@H](O)[C@@]1(C)C(=O)[C@H](O)C3=C(C)[C@@H](OC(=O)[C@H](O)[C@@H](NC(=O)OC(C)(C)C)c4ccccc4)C[C@@](O)([C@@H](OC(=O)c4ccccc4)[C@H]21)C3(C)C [taxotere, reference compound]			IC50 [2]: 0.004 µg/mL (≈ 4.95 nM); IC50 [1]: 0.0007 µg/mL (≈ 0.866 nM)
COCOC1CC2OCC2(OC(C)=O)C2C(OC(=O)c3ccccc3)C3(O)CC(OC(=O)C(O)C(NC(=O)OC(C)(C)C)c4ccccc4)C(C)=C(C(OC(C)=O)C(=O)C12C)C3(C)C (stereo not drawn) [Compound 8, 7-(O-methoxymethyl)-13-(N-Boc-2'-β-phenylisoserinyl)-baccatin III]		0.0011 µg/mL	IC90 (90% growth inhibitory concentration) [3]: 0.0011 micrograms/ml
CSCOC1CC2OCC2(OC(C)=O)C2C(OC(=O)c3ccccc3)C3(O)CC(OC(=O)C(O)C(NC(=O)OC(C)(C)C)c4ccccc4)C(C)=C(C(OC(C)=O)C(=O)C12C)C3(C)C (stereo not drawn) [Compound 44, 7-(O-methylthiomethyl)-13-(N-Boc-β-phenylisoserinyl)-baccatin III]	0.00037 µg/mL		
CSCOC1CC2OCC2(OC(C)=O)C2C(OC(=O)c3ccccc3)C3(O)CC(OC(=O)C(O)C(NC(=O)c4ccccc4)c4ccccc4)C(C)=C(C(OC(C)=O)C(=O)C12C)C3(C)C (centres unmarked) [Compound 42, 7-(O-methylthiomethyl) taxol]	0.00047 µg/mL		
COCOC1CC2OCC2(OC(C)=O)C2C(OC(=O)c3ccccc3)C3(O)CC(OC(=O)C(O)C(NC(=O)NC(C)(C)C)c4ccccc4)C(C)=C(C(OC(C)=O)C(=O)C12C)C3(C)C (stereo not drawn) [Compound 27, 7-(O-methoxymethyl)-13-(N-(t-butylaminocarbonyl)-β-phenylisoserinyl)-baccatin III]	0.00004 µg/mL		induce tubulin polymerization in vitro (tubulin): able to induce tubulin polymerization in vitro at 20 °C in a manner very similar to taxol
COC1CC2OCC2(OC(C)=O)C2C(OC(=O)c3ccccc3)C3(O)CC(OC(=O)C(O)C(NC(=O)NC(C)(C)C)c4ccccc4)C(C)=C(C(OC(C)=O)C(=O)C12C)C3(C)C (centres unmarked) [Compound 56, 13-(N-(t-butylaminocarbonyl)-b-phenylisoserinyl)-baccatin III 7-O-methyl ether]	0.00034 µg/mL		
CCOCOC1CC2OCC2(OC(C)=O)C2C(OC(=O)c3ccccc3)C3(O)CC(OC(=O)C(O)C(NC(=O)NC(C)(C)C)c4ccccc4)C(C)=C(C(OC(C)=O)C(=O)C12C)C3(C)C (stereo not drawn) [Compound 14, 7-(O-ethoxymethyl)-13-(N-(t-butylaminocarbonyl)-β-phenylisoserinyl)-baccatin III]	0.00007 µg/mL	0.0014 µg/mL	
COC1CC2OCC2(OC(C)=O)C2C(OC(=O)c3ccccc3)C3(O)CC(OC(=O)C(O)C(NC(=O)c4ccccc4)c4ccccc4)C(C)=C(C(OC(C)=O)C(=O)C12C)C3(C)C (centres unmarked) [Compound 47, 7-O-methyl Taxol]	0.0007 µg/mL		A2780 (IC50 ug/ml) ([1]; retest): 0.00044 µg/mL
CCOCOC1CC2OCC2(OC(C)=O)C2C(OC(=O)c3ccccc3)C3(O)CC(OC(=O)C(O)C(NC(=O)OC(C)(C)C)c4ccccc4)C(C)=C(C(OC(C)=O)C(=O)C12C)C3(C)C (stereo not drawn) [Compound 4, 7-(O-ethoxymethyl)-13-(N-Boc-β-phenylisoserinyl)-baccatin III]	0.0007 µg/mL		induce tubulin polymerization in vitro (tubulin): able to induce tubulin polymerization in vitro at 20 °C in a manner very similar to taxol
COCCOCOC1CC2OCC2(OC(C)=O)C2C(OC(=O)c3ccccc3)C3(O)CC(OC(=O)C(O)C(NC(=O)OC(C)(C)C)c4ccccc4)C(C)=C(C(OC(C)=O)C(=O)C12C)C3(C)C (stereo not drawn) [Compound 6, 7-(O-methoxyethoxymethyl)-13-(N-Boc-β-phenylisoserinyl)-baccatin III]		0.0023 µg/mL	
13-(N-Boc-2'-TES-b-phenyl isoserinyl)-baccatin III 7-O-methyl ether [Compound 58]	0.00038 µg/mL		
CCSC(C)OC1CC2OCC2(OC(C)=O)C2C(OC(=O)c3ccccc3)C3(O)CC(OC(=O)C(O)C(NC(=O)c4ccccc4)c4ccccc4)C(C)=C(C(OC(C)=O)C(=O)C12C)C3(C)C (centres unmarked) [Compound 49, 7-[O-ethyl(1-thioethyl)] Taxol]	0.0057 µg/mL		
7-[O-(2,2,2-trichloroethoxy)methyl]-13-(N-Boc-β-phenyl isoserinyl)-baccatin III [Compound 21]		0.0024 µg/mL	
CSCOC1CC2OCC2(OC(C)=O)C2C(OC(=O)c3ccccc3)C3(O)CC(OC(=O)C(O)C(NC(=O)NC(C)(C)C)c4ccccc4)C(C)=C(C(OC(C)=O)C(=O)C12C)C3(C)C (centres unmarked) [Compound 55, 13-(N-(t-butylaminocarbonyl)-b-phenylisoserinyl)-baccatin III 7-O-methylthiomethyl ether]	0.00025 µg/mL		
7-[O-(2,2,2-trichloroethoxy)methoxymethyl]-13-(N-Boc-β-phenyl isoserinyl)-baccatin III [Compound 22]		0.0047 µg/mL	
CC(=O)O[C@H]1C(=O)[C@@]2(C)[C@H]([C@H](OC(=O)c3ccccc3)[C@]3(O)C[C@H](OC(=O)[C@H](O)[C@@H](NC(=O)c4ccccc4)c4ccccc4)C(C)=C1C3(C)C)[C@]1(OC(C)=O)CO[C@@H]1C[C@@H]2O [taxol, Taxol]			IC50 [2]: 0.017 µg/mL (≈ 19.9 nM); IC50 [1]: 0.0018 µg/mL (≈ 2.11 nM); IC90 ([3]; read-out: IC90 (90% growth inhibitory concentration)): 17 ng/mL (≈ 19.9 nM)
